Legend:
[1] = tested on: PrLZ expression; assay: Androgen-activated PrLZ expression in prostate cancer cell lines after androgen deprivation; assay type: cell-based, human
Experimental: (§1) As an accessory sex organ, development and function of the prostate gland are controlled by androgens, through the mediation of the AR (Gelmann, J. Clin. Oncol. 20:3001-15, 2002). To investigate the possible regulation of PrLZ by androgens, we treated prostate cancer cell lines with an androgen analog, methyltrienolone (R1881, 1 nM), after androgen deprivation. Under cell culture conditions for androgen deprivation (phenol red-free RPMI1640 for 48 hours), there was a marked decline in PrLZ expression in all the prostate cancer cell lines. […] This culture system, or another like it, can be used to identify agents that modulate (by either increasing or decreasing) PrLZ expression.
Expression studies: The 502 bp PrLZ gene-specific fragment was subcloned after PCR amplification of the PrLZ cDNA in pBK-CMV, with primers: […], and […]. The amplified DNA was cloned into pGEM-T easy (Promega) and verified by DNA sequencing. The fragment was released from the vector by EcoRi and used in hybridization reactions. Standard protocols were used in Southern and Northern blot hybridizations (Sambrook et al., Molecular cloning, a laboratory manual, Clod Spring Harbor Laboratory Press, 2001), with α-^32P-dCTP used in the labeling step. […]

[2] = tested on: PSA expression; assay: Androgen-activated PSA expression in LNCaP lineage cells; assay type: cell-based, human; details: LNCaP vs C4-2 and C4-2B4 cells
Experimental: as §1
By comparing the patterns of androgen-activated expression of PrLZ and PSA, it became clear that PrLZ was controlled by a regulatory mechanism that was different from the one controlling the PSA expression. […] Thus, along the transition from an AD to an AI state, there were heterologous changes in AR mediated gene regulation. While LNCAP derivative cell lines lost the mechanism of AR-controlled PSA production, they maintained the capability to regulate some other androgen responsive genes, including PrLZ.

[3] = tested on: expression of TPD52 members; details: HL-60 and K-562 cells; cited from earlier work

Q: Which results are given for `C[C@]1(O)CC[C@H]2[C@@H]3CCC4=CC(=O)CCC4=C3C=C[C@@]21C` [R1881, methyltrienolone]?
A: PrLZ expression upon androgen treatment ([1]; R1881 1 nM after androgen deprivation (phenol red-free RPMI1640, 48 hours), prostate cancer cell lines): dramatically activated the expression of the PrLZ; PrLZ transcription upon androgen treatment ([1]; all LNCaP lineage cells (LNCaP, C4-2, C4-2B4)): marked PrLZ transcription; PSA expression upon androgen treatment [2]: androgen-dependent up-regulation only in LCNaP cells

Q: For `CCCCCCCCCCCCCC(=O)O[C@@H]1[C@@H](C)[C@@]2(O)[C@@H](C=C(CO)C[C@]3(O)C(=O)C(C)=C[C@@H]23)[C@H]2C(C)(C)[C@]12OC(C)=O` [TPA, 12-O-trtradecanoylphorbol-13-acetate], which “Expression of TPD52 members upon treatment” value [3] is on record?
A: inhibited

Source: patent publication US20070015149A1, “Prlz regulatory elements in the treatment of disease and the discovery of therapeutics” (priority 2002, published 2007)
